Non-standard residues stand in square brackets, D forms with d. Residues, ends and D or L forms follow the SMILES beside them. Nva = CCC[C@H](N)C(=O)O
Experiments:
[1] = Solubility of the peptide in acetate buffer formulation; assay type: physicochemical
Method: Vehicle was prepared by dissolving propylene glycol (1.77 g) and Tyloxapol (0.1 g) in 97 mL of 35 mM of Acetic Acid/Sodium Acetate buffer, pH 4.3-4.5 by mixing until uniform. The peptide D-Asn-Ile-Pro-Nva-Leu-Tyr-D-Ser-Phe-Ala-D-Ser-NH2 (API, also referred to as ALY688 or ALY-688 herein) (1.0 g) was added to the vehicle and mixed until dissolved. The pH was adjusted with small amounts of Acetic Acid or Sodium Hydroxide. The formulation was sterile-filtered.
A concentration of 12 mg/g Acetate buffer gave a clear solution at a pH 4.5.

[2] = tested on: rabbit atropine-induced dry eye model; test: Slit-lamp examination of the anterior segment (McDonald-Shattuck) in atropine-induced dry eye study; assay type: in vivo, NZW rabbits; details: ALY688 0.4% ophthalmic TID (Formula 22); baseline and Day 13
Method: (§1) The purpose of this study was to evaluate the efficacy of a topical ALY688 ophthalmic formulation according Formula 22 in Example 2 in a rabbit atropine-induced dry eye model.
(§2) Clinical evaluations of corneal fluorescein staining, tear break-up time and tear volume were determined at five timepoints during the 14 day dosing period. Pre-dose ophthalmic anterior segment slit-lamp exams with corneal fluorescein staining, Tear Volume (TV) and Tear Break-Up Time (TBUT) assessments were performed. Animals were assigned to treatment groups such that the average baseline TV and TBUT values were approximately equal across groups.
(§3) Study Groups were assigned as follows: • Group 1: Atropine+ALY688 0.4% ophthalmic TID, (n=6) • Group 2: Atropine+Vehicle ophthalmic TID, (n=6) • Group 3: Atropine only (n=4)
Examinations: Slit-lamp examinations of the anterior segment were performed at baseline and on Day 13 according to the McDonald-Shattuck Scoring System including conjunctival congestion, swelling, and discharge, corneal opacity, pannus, anterior chamber cells and flare, iris, light reflex, and lens.

[3] = tested on: rabbit atropine-induced dry eye model; test: Corneal epithelial fluorescein staining in atropine-induced dry eye; assay type: in vivo, NZW rabbits
Method: as §1, §2, §3
(§4) Test article dosing began on Day −1.
(§5) Atropine eye drops (TID) began on Day 0.
(§6) Dry eye evaluations were performed on Days 1, 3, 7, 10, and 13.
Corneal epithelial staining: Corneal staining was assessed immediately after the TBUT measurement, after rinsing excess fluorescein. Fluorescein uptake was graded according to the NEI/Industry Grading System, in 5 separate areas of the cornea using a 0-3 grading scale maximum score: 15). Total staining score was calculated for each eye.

[4] = tested on: rabbit atropine-induced dry eye model; test: Tear Break-Up Time (TBUT) in atropine-induced dry eye; assay type: in vivo, NZW rabbits
Method: as §1, §2, §3, §4, §5, §6
Tear Breakup Time (TBUT): TBUT was determined after instillation of 6 μL of 2% sodium fluorescein in sterile saline onto the lower eyelid. After manually blinking the eye, the time for black spots or streaks to appear on the cornea under cobalt filter illumination was recorded. The procedure was conducted three times consecutively, and the average of three readings was used.

[5] = tested on: rabbit atropine-induced dry eye model; test: Tear Volume (TV, Schirmer Tear Test strips) in atropine-induced dry eye; assay type: in vivo, NZW rabbits
Method: as §1, §2, §3, §4, §5, §6
Tear Volume (TV): Tear volume was measured using Schirmer Tear Test strips (Intervet, Inc., Summit, NJ), by placing the strip into the lower fornix for 60 seconds and recording the mm distance of the wetted area.

[6] = tested on: rabbit atropine-induced dry eye model; test: Atropine-induced dry eye in rabbits, overall conclusion; assay type: in vivo, NZW rabbits
Method: as §1, §2, §3, §4, §5, §6
The evaluator was masked as to treatment group for all assessments.

[7] = integrated AUC response vs baseline, p<0.005, FIG. 4

Question: With CCC[C@H](NC(=O)[C@@H]1CCCN1C(=O)[C@@H](NC(=O)[C@H](N)CC(N)=O)[C@@H](C)CC)C(=O)N[C@@H](CC(C)C)C(=O)N[C@@H](Cc1ccc(O)cc1)C(=O)N[C@H](CO)C(=O)N[C@@H](Cc1ccccc1)C(=O)N[C@@H](C)C(=O)N[C@H](CO)C(N)=O [ALY688, D-Asn-Ile-Pro-Nva-Leu-Tyr-D-Ser-Phe-Ala-D-Ser-NH2] (H-[dN]IP[Nva]LY[dS]FA[dS]-NH2; N-terminus assumed) as the compound, how does the “concentration that gave a clear solution” value ([1]; Acetate buffer, pH 4.5) read?
Answer: 12 mg/g

Question: What about the “solubility of the peptide” value ([1]; formulation of Example 1) of the same compound?
Answer: significantly increased

Question: What about the “anterior segment slit-lamp exam findings related to test article” value [2] of the same compound?
Answer: no abnormal findings

Question: And the “corneal fluorescein staining vs vehicle control group” value ([3]; ALY688 0.4% TID, all evaluation timepoints, statistically significant on Days 1, 3, 10 (p<0.05))?
Answer: lower

Question: What about the “corneal staining, integrated analysis at all post-baseline timepoints vs vehicle” value [3, 7] of the same compound?
Answer: highly statistically significant improvement

Question: And the TBUT decrease ([4]; ALY688 0.4% TID, Day 1 of atropine treatment (vehicle group 50%))?
Answer: 32%

Question: And the “TBUT level by Day 7” value ([4]; ALY688 0.4% TID, Day 7)?
Answer: returned to baseline TBUT levels

Question: And the “TBUT compared to vehicle” value ([4]; ALY688 0.4% TID, Days 7, 10 and 13 (p<0,01))?
Answer: statistically significant higher

Question: And the “TBUT level through the remainder of the study” value ([4]; ALY688 0.4% TID, after Day 7 to Day 13)?
Answer: maintained normal TBUT levels

Question: And the “TBUT compared to atropine-only group” value ([4]; ALY688 0.4% TID, all post-baseline days, 2-sample two-tailed t-test)?
Answer: statistically significantly higher

Question: And the “TBUT, integrated analysis at all post-baseline timepoints vs vehicle” value [4, 7]?
Answer: highly statistically significant improvement

Question: What about the “Tear Volume vs vehicle group on Day 13” value ([5]; ALY688 0.4% TID, Day 13 (p=0.01), borderline (p=0.08) on Days 1 and 7) of the same compound?
Answer: statistically significantly higher

Question: What about the “Tear Volume vs vehicle control group” value ([5]; ALY688 0.4% TID, all timepoints) of the same compound?
Answer: consistently higher

Question: What about the “Tear Volume, integrated analysis at all post-baseline timepoints vs vehicle” value [5, 7] of the same compound?
Answer: highly statistically significant improvement

Question: And the “reduction of dry eye signs” value ([6]; ALY688 ophthalmic solution 0.4% TID, 14 day dosing)?
Answer: highly effective at reducing dry eye signs

Question: And the onset of effects ([6]; after initiation of ALY688 treatment)?
Answer: as early as two days after initiation

From patent US12201668B2, “Adiponectin peptidomimetics formulations” (ALLYSTA PHARMACEUTICALS, INC., priority 2018, dated 2025)
